In the supplement of paper PMC8967900:

Key:
Assay in all cases: selective drug sensitivity score (sDSS, relative to normal bone marrow) (sDSS (score)); higher = more potent and effective on the cell line relative to normal bone marrow cells
Conditions in all cases: 72 h
[1] = tested on: MN-60
[2] = tested on: 380
[3] = tested on: P12-ICHIKAWA
[4] = tested on: DND-41
[5] = tested on: MOLT-14
[6] = tested on: COG-LL-394h
[7] = tested on: PEER
[8] = tested on: CCRF-CEM
[9] = tested on: TANOUE
[10] = tested on: MHH-CALL-3
[11] = tested on: P30-OHKUBO
[12] = tested on: NALM-6
[13] = tested on: KARPAS-45
[14] = tested on: NALL-1
[15] = tested on: COG-LL-319h
[16] = tested on: ALL-SIL
[17] = tested on: PF-382
[18] = tested on: JURKAT
[19] = tested on: RPMI-8402
[20] = tested on: REH
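Further: ALL cell lines in 384-well plates, five doses spanning 10,000-fold, each plate scaled between vehicle and 100 µmol/L benzalkonium chloride controls, sDSS an adapted area-under-curve metric.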

Compound | selective drug sensitivity score [1] | selective drug sensitivity score [2] | selective drug sensitivity score [3] | selective drug sensitivity score [4] | selective drug sensitivity score [5] | selective drug sensitivity score [6] | selective drug sensitivity score [7] | selective drug sensitivity score [8] | selective drug sensitivity score [9] | selective drug sensitivity score [10] | selective drug sensitivity score [11] | selective drug sensitivity score [12] | selective drug sensitivity score [13] | selective drug sensitivity score [14] | selective drug sensitivity score [15] | selective drug sensitivity score [16] | selective drug sensitivity score [17] | selective drug sensitivity score [18] | selective drug sensitivity score [19] | selective drug sensitivity score [20]
Cc1cc(F)c(C(=O)Nc2cccc(-c3nncn3C(C)C)n2)cc1-n1cnc(C2CC2)c1 [Selonsertib] (top concentration 1000 nM) | 0 | 1 | 0 | 0 | 0 | 0 | 0 | 0 | 0 | 0 | 0.9 | 0 | 0 | 0 | 0 | 0 | 0 | 0 | 0 | 0
Nc1nc2cc(-c3ccc4ncc(C(=O)N5CCOCC5)n4c3)ccc2o1 [Serabelisib] (top concentration 10000 nM) | -1.54 | -0.44 | -1.54 | 0.66 | 0.96 | -1.54 | -1.04 | 0.76 | -1.54 | -1.54 | 1.46 | -1.44 | 0.06 | -0.64 | -0.44 | 0.36 | 0.36 | -1.54 | -1.54 | 0.76
CCC(C)(C)C(=O)O[C@H]1C[C@@H](C)C=C2C=C[C@H](C)[C@H](CC[C@@H]3C[C@@H](O)CC(=O)O3)[C@H]21 [Simvastatin] (top concentration 10000 nM) | -0.72 | 4.88 | 2.18 | -0.72 | -0.22 | -0.72 | 1.48 | 2.38 | -0.72 | 6.08 | 1.28 | 0.08 | 2.58 | 3.48 | 0.68 | 2.38 | 0.08 | -0.52 | 2.08 | 0.88
C=CCN(/C=C1/C(=O)O[C@H](COC)[C@@]2(C)C1=C(O)C(=O)C1=C2[C@H](OC(C)=O)C[C@]2(C)C(=O)CC[C@@H]12)CC=C [Sonolisib] (top concentration 10000 nM) | -0.76 | -0.56 | -0.76 | 1.64 | -0.76 | -0.66 | -0.76 | -0.66 | -0.76 | -0.76 | -0.16 | -0.56 | -0.76 | -0.76 | 4.24 | 2.64 | -0.76 | -0.76 | -0.76 | -0.76
CC(C)n1cnc2c(NCCc3ccc(O)cc3)nc(-c3csc4ccccc34)nc21 [StemRegenin_1] (top concentration 10000 nM) | 2.7 | -1.8 | 0.2 | 4.5 | -0.2 | -1.8 | 1.5 | 1.4 | 4.2 | -1.8 | 2.2 | 1.1 | 3.9 | -1.4 | -1.8 | 3.8 | 0.9 | 1 | -0.7 | 1.8
CC(C)(O)CC(=O)NCCn1ccc2ncnc(Nc3ccc(Oc4cccc(C(F)(F)F)c4)c(Cl)c3)c21 [TAK-285] (top concentration 2500 nM) | 0 | 0 | 0 | 0 | 0 | 0 | 0 | 0.2 | 0 | 0 | 0 | 0 | 0 | 0.1 | 0 | 0 | 0 | 0 | 0 | 0.1
Nc1nc(N)c2nc(-c3cccc(O)c3)c(-c3cccc(O)c3)nc2n1 [TG100-115] (top concentration 10000 nM) | -0.4 | 2.1 | -0.3 | 0.1 | -0.4 | -0.4 | -0.2 | 0.4 | -0.4 | -0.4 | 3.6 | -0.4 | 0.8 | 4.6 | 0.6 | 0.7 | -0.2 | -0.3 | 0 | 5.1
CC/C(=C(\c1ccccc1)c1ccc(OCCN(C)C)cc1)c1ccccc1 [Tamoxifen] (top concentration 10000 nM) | -1.58 | 0.02 | 0.32 | 3.72 | 0.62 | 2.32 | 1.02 | 0.82 | -2.28 | -2.48 | 3.32 | 0.42 | 1.92 | 3.82 | 5.42 | 3.12 | 1.72 | -1.48 | 0.42 | 1.02
COc1cc2c(N3CCN(C(=O)Nc4ccc(OC(C)C)cc4)CC3)ncnc2cc1OCCCN1CCCCC1 [Tandutinib] (top concentration 1000 nM) | 0 | 0 | 0 | 2.3 | 0 | 0.3 | 0 | 0 | 0 | 0 | 0 | 0 | 0 | 0 | 0 | 0 | 0 | 0 | 0 | 0
Cn1nnc2c(C(N)=O)ncn2c1=O [Temozolomide] (top concentration 100000 nM) | -0.04 | 5.66 | 4.96 | -0.04 | 3.36 | -0.04 | -0.04 | 7.16 | -0.04 | 4.76 | 3.36 | 2.26 | 5.76 | -0.04 | -0.04 | 4.66 | 3.16 | 2.36 | 1.46 | 6.66
CN1CCC(COc2cnc(-c3cccc(Cn4nc(-c5cccc(C#N)c5)ccc4=O)c3)nc2)CC1 [Tepotinib] (top concentration 1000 nM) | -0.08 | -0.08 | -0.08 | -0.08 | -0.08 | -0.08 | 0.02 | -0.08 | -0.08 | -0.08 | -0.08 | -0.08 | -0.08 | -0.08 | 2.22 | -0.08 | -0.08 | -0.08 | -0.08 | -0.08
NC(=S)N/N=C/c1ncccc1N [Triapine] (top concentration 10000 nM) | 1.48 | 5.88 | 5.18 | 7.38 | 2.08 | 0.88 | 2.08 | 2.68 | -1.32 | 2.08 | 2.88 | 4.48 | -0.12 | 3.48 | 10.6 | 6.78 | 1.28 | 2.28 | 2.38 | 3.88
NC(=O)c1cccc(-c2cccc(OC(=O)NC3CCCCC3)c2)c1 [URB597] (top concentration 1000 nM) | -0.46 | 2.44 | -0.46 | -0.26 | -0.46 | -0.46 | -0.46 | -0.46 | 2.84 | -0.46 | -0.46 | 2.44 | -0.46 | -0.46 | 5.14 | -0.46 | -0.46 | -0.46 | -0.46 | -0.46
COc1cc2/c(=N/c3ccc(Br)cc3F)nc[nH]c2cc1OCC1CCN(C)CC1 [Vandetanib] (top concentration 1000 nM) | -0.22 | -0.22 | -0.22 | -0.22 | 0.48 | -0.22 | 1.38 | -0.22 | -0.22 | 0.78 | 0.38 | -0.22 | 0.68 | 2.28 | -0.22 | 2.68 | 0.48 | -0.22 | -0.22 | -0.22
COc1cccc(-c2ccc(NC(=O)C3=C(C(=O)O)CCC3)c(F)c2)c1 [Vidofludimus] (top concentration 10000 nM) | 12.3 | 5 | 6.5 | 5.3 | 3.5 | 0 | 5.1 | 3.1 | 3 | 0.7 | 3 | 3.4 | 3.9 | 1.9 | 6.9 | 3.2 | 4.8 | 8.2 | 3.9 | 8.9
CC[C@]12C=CCN3CC[C@@]4(c5cc([C@@]6(C(=O)OC)C[C@@H]7C[C@@H](C(C)(F)F)CN(Cc8c6[nH]c6ccccc86)C7)c(OC)cc5N(C)[C@H]4[C@@](O)(C(=O)OC)[C@@H]1OC(C)=O)[C@@H]32 [Vinflunine] (top concentration 1000 nM) | 0.58 | 5.98 | 3.98 | 0.18 | 3.78 | 2.38 | 5.08 | 3.98 | -1.32 | -0.12 | 3.68 | 5.18 | 4.48 | 2.98 | 2.98 | 10.3 | 2.68 | 4.48 | 4.78 | 4.18
